According to US5356796A, “Repressor protein and operon for regulating expression of polypeptides and its use in the preparation of 2,2-dialkyglycine decarboxylase of Pseudomonas cepacia” (priority 1992, dated 1994):

Assays:
[1] = test system: dialkylglycine decarboxylase gene (dgdA) expression controlled by the P. cepacia repressor, in E. coli JM109/pGEM7Z14; assay type: cell-based, Escherichia coli; conditions: 20 mM amino acid in culture medium
Description: Induction Stereochemistry--The induction phenomenon was further investigated by surveying the inducing ability of the separate isovaline stereoisomers and 15 other structurally similar amino acids (Table 3).
In some experiments 20 mM 2-methylalanine or other amino acid or 1 mg/mL IPTG was added to the growth medium. […] Protein concentrations were determined by dye binding (Read and Northcote, 1981).

[2] = target: Pseudomonas cepacia 2,2-dialkylglycine decarboxylase (Burkholderia cepacia, UniProt P16932); conditions: isovaline isomer as substrate of the decarboxylase; read-out: Michaelis constant; cited from earlier work
[3] = test system: dialkylglycine decarboxylase gene expression in E. coli DH5α/pKBD6; assay: Time course of dialkylglycine decarboxylase induction in E. coli DH5α/pKBD6; assay type: cell-based, Escherichia coli; conditions: DH5α/pKBD6 in minimal medium with ammonium chloride; amino acid added during growth (10 mM in FIG. 7 legend, 8.0 mM in method)
Description: FIG. 7 depicts induction of dialkylglycine decarboxylase activity in E. coli DH5a/pKBD6 cultures by various amino acids. One-liter cultures containing minimal salts, glucose, NH4 Cl, and tetracycline (12 μg/ml) were supplemented at the indicated time with amino acid (final concentration, 10 mM). Absorbance of the culture was measured at 600 nm in a 1-cm cell ( -- ). Each activity assay contained 60 absorbance units of resuspended bacteria (.largecircle.--.largecircle.)
Radiochemical Dialkylglycine Decarboxylase Assay--Dialkylglycine decarboxylase activity was measured under zero-order conditions essentially as described (Dinwoodie and Boeker, 1979). Assay reactions contained 500 μL of protein solution (100 mM MOPS^1, (MOPS=3-(N-morphalino)propanesulfonic acid), 25 mM KCl, 0.05 mM PLP, (PLP=pyridoxal 5'-phosphate), pH 7.00 or 30 mM Tris, 40 mM KCl, 0.05 mM PLP pH 7.90) plus 0.045 mL of substrate solution (245 mM 2-methylalanine, 62 mM sodium pyruvate, containing 0.25 μCi [1-^14 C]2-methylalanine)- Assays were carried out in stoppered 12×220 mm test tubes containing a folded 10×25 mm piece of filter paper soaked with 24 μL of 2:1 ethanolamine/2-ethoxyethanol- After incubation at room temperature (25° C.) for one or two hours, the reaction was quenched with 200 μL of 50% trichloroacetic acid, ^14 CO2 was collected for one hour, and the filter paper was counted in 10 mL of Beckman Ready Safe cocktail. One unit is defined as the amount of activity required to produce 1 nanomole of CO2 per min. at 25° C.
Time Course of Dialkylglycine Decarboxylase Induction--An 800-mL portion of M9 containing 12 μg/mL tetracycline in a 6-L conical flask was inoculated with DH5α/pKBD6. The flask was shaken at 37° C. and the absorbance at 600 nm was measured periodically. At various times during cell growth aliquots containing 60. AU's (absorbance units) of cells were removed, stored on ice, concentrated by centrifugation, and resuspended in 1.0 mL MOPS buffer. Aliquots of 0.50 mL were assayed for dialkylglycine activity. After the first two samples were taken, an amino acid (2-methylalanine, R,S-isovaline, D-alanine, or L-alanine) was added to a final concentration of 8.0 mM and sampling was continued.

[4] = target: T1, Pseudomonas cepacia 2,2-dialkylglycine decarboxylase repressor (dgdR gene product, SEQ ID NO: 11) bound to operators O1 and O2 (Burkholderia cepacia, UniProt P16931); assay: Gel mobility shift assay of dgdR repressor with the 788 bp DNA fragment in presence of 2-methylalanine; assay type: binding; conditions: 20 mM 2-methylalanine in gel; 788 bp fragment containing O1 and O2
T1 construct: crude extract or ammonium sulfate fraction; gel shift on dgd operator DNA
Description: Repressor Preparation--A 100 ml portion of LB medium containing about 50 μg/ml carbenicillin was inoculated with about a 2 ml overnight culture of JM109/pJKDGDR1 and was grown at about 37° C. to an OD600 of 1. IPTG was added to a final concentration of about 1 mM, the culture was shaken another 4 h, and then was pelleted by centrifugation at 4000 xg at about 4° C. The pellet was resuspended in 5 ml buffer (50 mM TrisHCl pH 7.9, 50 mM KCl), sonicated 3×0.5 min at about 0° C., and centrifuged for about 15 min at about 12,000 xg at about 4° C. Aliquots of the supernatant were used for gel shift assays and SDS-PAGE. Other aliquots were partially purified by selective precipitation with 1.0 M ammonium sulfate. Protein concentration was determined by the dye binding method of Read and Northcote (1981). […]
Gel Shift Assays--A 10 μl assay mixture contained about 50 ng of DNA fragment, 1.0 μg of repressor extract (or 1.0 μg of extract from a JM109 strain containing a dgdA-pBTac1 recombinant), 10 mM TrisHCl pH 7.6, 5 mM sodium acetate, 2.5% glycerol, and 0.005% bovine serum albumin. The mixture was incubated 5 to 20 min at room temperature, about 3 μl of 50% sucrose/0.1% bromophenol blue was added, and the entire sample was analyzed by electrophoresis in a 1 mm 4% polyacrylamide gel containing about […] Tris, 380 mM glycine, 4 mM EDTA, and 2.5% glycerol. […]

Chain of Pseudomonas cepacia 2,2-dialkylglycine decarboxylase (P16932 2-433): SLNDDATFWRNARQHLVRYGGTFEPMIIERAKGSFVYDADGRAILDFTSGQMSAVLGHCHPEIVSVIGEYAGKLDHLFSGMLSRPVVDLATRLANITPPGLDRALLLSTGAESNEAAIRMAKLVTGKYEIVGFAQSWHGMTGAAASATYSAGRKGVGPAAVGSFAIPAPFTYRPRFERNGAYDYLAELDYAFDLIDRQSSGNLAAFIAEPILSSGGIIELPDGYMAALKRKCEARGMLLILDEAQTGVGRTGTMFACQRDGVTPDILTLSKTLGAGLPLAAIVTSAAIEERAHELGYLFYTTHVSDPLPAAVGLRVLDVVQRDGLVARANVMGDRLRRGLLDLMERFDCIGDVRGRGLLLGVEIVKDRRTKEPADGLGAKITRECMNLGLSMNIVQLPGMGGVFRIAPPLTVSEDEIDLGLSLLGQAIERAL
T1 sequence (P16931 whole entry, the tested form may be a part): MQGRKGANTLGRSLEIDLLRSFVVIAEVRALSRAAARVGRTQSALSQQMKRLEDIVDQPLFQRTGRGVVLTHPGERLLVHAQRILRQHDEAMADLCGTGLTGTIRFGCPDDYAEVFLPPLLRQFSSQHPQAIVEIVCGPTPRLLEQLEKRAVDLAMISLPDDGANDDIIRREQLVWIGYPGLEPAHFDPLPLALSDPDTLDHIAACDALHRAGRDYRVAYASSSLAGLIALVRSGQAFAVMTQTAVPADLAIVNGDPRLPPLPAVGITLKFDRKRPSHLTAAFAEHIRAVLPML

Structure (SMILES)	induction of decarboxylase specific activity after amino acid addition (in words) [3]	further results
NC1(C(=O)O)CCCC1 [1-Aminocyclopentane carboxylic acid]	–	induction of decarboxylase (in words) [1]: induced an intermediate level
CC[C@@](C)(N)C(=O)O [R-Isovaline]	–	Km [2]: 1 mM
CCC(C)(N)C(=O)O (racemic) [racemic isovaline, isovaline (2-ethylalanine)]	immediate and rapid increase in decarboxylase specific activity	–
C[C@@H](N)C(=O)O [D-Alanine]	no decarboxylase production	–
CC(C)(N)C(=O)O [2-Methylalanine]	immediate and rapid increase in decarboxylase specific activity	effect on repressor binding to operators (gel shift, in words) [4]: releases O1, but not O2, binding
CC[C@](C)(N)C(=O)O [S-Isovaline]	–	Km [2]: 25 mM
C[C@H](N)C(=O)O [L-Alanine]	no decarboxylase production	–
